Data: patent US20130101986A1, “In Vitro Method for obtaining Intrahepatic Fibroblasts Infected with Hepatitis C Virus” (priority 2009, published 2013)

System: HCV-JFH1
Assay: Test of neutralization by interferon alfa of infection of human intrahepatic fibroblasts with HCV-JFH1
Type: cell-based, hepatitis C virus
Conditions: human intrahepatic fibroblasts preincubated 1 h at 37° C. with 500 U/ml of interferon alfa, infected at 0.1 FFU per cell; FIG. 8
Description: The intrahepatic fibroblasts were infected one day after being put in culture with HCV-JFH1 to a multiplicity of infection of 0.1 FFU per cell. After incubation overnight at 37° C., the cellular monolayers were washed three times with phosphate-buffered saline and then grown in standard conditions (Aoudjehane et al., Lab. Invest., 88: 973-985, 2008) in DMEM medium (Gibco) 10% FCS in the presence of penicillin and streptomycin (1%) as well as pyruvate (1%).
In order to determine whether the HCV genome is capable of replicating in intrahepatic fibroblasts inoculated with HCV-JFH1, the strands of positive RNA (genomic RNA) and the strands of negative RNA (antisense RNA) were quantified. For this purpose, the cells were taken on D3, D6 and D9 post-infection, washed in PBS buffer, then prepared using the “RNeasy minikit” extraction kit (QIAGEN S.A, Courtaboeuf, France) according to the supplier's recommendations, the cells having been lysed in 300 μl of buffer for 3.10^5 cells. The intracellular RNAs were quantified by quantitative RT-PCR specific to each strand as described by Carriere et al. (J. Med. Virol., 79: 155-160, 2007). […]

## interferon alfa
  amount of negative-strand HCV RNA: decrease
  amount of positive-strand HCV RNA: decrease
